The results in this text go back to patent US20050118601A1, “Enhancer sequence of the 5-aminolevulinic acid synthase gene” (priority 2002, published 2005).

For one experiment, the target named is T1, mCAR (Mus musculus, UniProt O35627).
T1 construct: expressed in transfected cells; host or cells: monkey kidney CV-1 cells and human hepatoma HepG2 cells
T1 sequence (O35627 1-358): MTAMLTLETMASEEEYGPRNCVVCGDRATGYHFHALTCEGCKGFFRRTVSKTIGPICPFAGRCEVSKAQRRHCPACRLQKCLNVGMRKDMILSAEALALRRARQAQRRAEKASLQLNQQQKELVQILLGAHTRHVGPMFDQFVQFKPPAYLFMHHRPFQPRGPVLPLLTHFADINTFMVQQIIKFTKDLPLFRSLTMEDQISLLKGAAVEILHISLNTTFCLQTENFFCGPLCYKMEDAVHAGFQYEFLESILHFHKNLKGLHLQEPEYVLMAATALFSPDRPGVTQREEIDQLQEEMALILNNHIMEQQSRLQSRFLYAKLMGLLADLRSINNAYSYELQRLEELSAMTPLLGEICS
Nature of the experiment: Transactivation assays of human ALAS1 fragments with mCAR in CV-1 and HepG2 cells. It is filed as cell-based. The procedure:
In transactivation assays in a heterologous cell line (monkey kidney CV-1 cells) and human hepatoma HepG2 cells, we assessed which nuclear receptor conveys the observed activation. The two candidate receptors pregnane X receptor (PXR) and constitutive androstane receptor (CAR) were tested on these fragments.

For the next experiment, the system named is ALAS1 mRNA. The experiment is described as follows: ALAS1 mRNA quantification (Taqman real-time PCR) in LMH cells. The format is cell-based, chicken. The procedure:
We next wanted to compare ADRES-mediated ALAS1 induction levels from reporter gene assays with stimulation of transcription in a physiological system. […] In addition, the common CYP3A inducers dexamethasone (50 μM), metyrapone (400 μM), and 10 μM mifepristone (RU-486) were employed for comparison. We were also interested in the effects of […] 5-pregnen-3β-ol-20-one-16α-carbonitrile (PCN) and rifampicin (100 μM) due to their species-specific effects on PXR activation and CYP3A induction. Messenger RNA was reverse transcribed and levels of ALAS1 cDNA were quantified using the Taqman real-time PCR quantification system as described in Materials and Methods. […] This value was chosen to represent 100% induction, against which all other values are compared.
LMH cells were plated onto 12-well plates, expanded to 70-80% surface density and incubated in serum-free media for 24 h. Cells were then exposed to either drug or vehicle and RNA was isolated with Trizol reagent (Gibco BRL) according to the manufacturer protocol. One μg of total RNA was reverse transcribed with the Moloney murine leukemia virus reverse transcriptase kit (Roche Molecular Biochemicals). PCR was performed using the Taqman PCR core reagent kit (PE Applied Biosystems) and transcript levels quantitated with an ABI Prism 7700 sequence detection system (PE Applied Biosystems). Relative transcript levels were determined using the relative quantitation method measuring the ΔΔCt. The following primers and probes were used in these reactions. […] Transcript levels were measured in separate tubes and GAPDH values were used for normalization of ALAS1 values.

Experiment [1] relates to human ALAS1 gene fragments (hA795, hA174, hA8, hA240). Nature of the experiment: Luciferase reporter gene assay of human ALAS1 fragments in LMH cells. It is filed as cell-based. The settings on record: 24 h, 400 μM PB or 250 μM PIA. The procedure:
Fragments were cloned into the pGL3 luciferase reporter vector (Promega Corp) and tested for inducibility by the prototypical HALAS1 inducers phenobarbital (PB) and propylisopropylacetamid (PIA). Four hours after transfection of LMH cells with the constructs, cells were exposed to the drugs for 24 hours, after which luciferase activity was assayed. Results were normalized for transfection efficiency by assaying for activity of co-transfected β-galactosidase. Data shown is one representative experiment (FIG. 11).
We investigated in more detail the contribution of various response element half-sites to drug-induction mediated by this element. Within the hA174 element, an arrangement of three nuclear receptor response element half-sites was found, which lead: to the prediction of a DR-4 type, as well as a DR-5 type response element (of. FIG. 18A). By site-directed mutagenesis, we examined the involvement of each of these half-sites to drug induction. In the context of the 2xhA174 reporter construct, each single half-site was mutated in both copies of the hA174 element. The wild-type and mutant constructs were subsequently tested for reporter gene activation in LMH cells as described above. Cells were induced with 400 μM phenobarbital (PB) or 250 μM propylisopropylacetamid (PIA). As a control, vehicle alone (0.1% DMSO) was added to the cells. After 24 hours, luciferase activity was assayed and normalized against co-transfected β-galactosidase activity in order to compensate for transfection efficiency. […] From this, we conclude that the DR-4 element, consisting of the HS1 and HS2 half-sites, is essential for drug induction. The change in induction observed by mutagenesis of the HS3 half-site may indicate a modulatory role for the half-site alone or as a DR-5 in combination with HS2 in drug induction. Data shown are the mean+1SD of three independent experiments.
In order to define a core sequence retaining inducibility, the hA8 fragment (Seq. Id. No. 10), which carries PCR-introduced KpnI and XhoI restriction sites at its ends, was digested with SacI and NsiI. The resulting four fragments, a 100 bp KpnI/SacI fragment, a 374 bp SacI/NsiI fragment, a 240 bp NsiI/NsiI fragment, and a 231 bp NsiI/XhoI fragment, were cloned into a reporter gene vector and subsequently tested for drug induction in LMH cells. Of these fragments, only the 240 bp fragment (called hA240) (Seq. Id. No. 39) was able to convey transcriptional activation in response to drugs. Within the core hA240 fragment, we then mutated both half-sites of a predicted DR-4 element (cf. FIG. 18B) and observed the effect of this mutation on drug induction (240mutDR4). Alteration of the DR4 element half-sites abolished drug induction in LMH cell reporter gene assays. […]
On the technique in general: A reporter such as luciferase makes a cellular process visible.

Experiment [2] deals with chicken ALAS1 drug responsive enhancer sequence (ADRES) elements. Nature of the experiment: Luciferase reporter gene assay of chicken ALAS1 5'-flanking fragments / ADRES elements in transfected LMH cells. It is filed as cell-based. To be noted: for ADRES activation in reporter assays: PIA 250 μM, glutethimide 500 μM, metyrapone 400 μM, dexamethasone 50 μM, RU-486 10 μM, rifampicin 100 μM, TCPOBOP 10 μM, compared with PB 600 μM. The procedure: The constructs were transfected together with a transfection-control construct expressing β-galactosidase into LMH cells. Cells were then treated with 600 μM PB for 16 h and luciferase assays were performed on the cell extracts. Relative luciferase levels are standardized against cells transfected with vector containing no insert and expressed as fold induction. Experiments were repeated at least three times and data from a representative experiment tested in triplicate are shown here. Error bars represent standard deviations;
Three major subclones were generated from the region upstream of the transcriptional start site, including a 3282 bp SmaI fragment and 5056 bp and 7973 bp EcoRI segments (FIG. 1A). The SmaI clone extends from −167 bp to −3449 bp, whereas the EcoRI subfragments span the regions from −2347 bp to −7402 bp and −7403 bp to −15376 bp, respectively. These subfragments were cloned into the pLucMCS modified luciferase vector containing an SV40 promoter as described in Materials and Methods. Drug inducibility was measured in transiently transfected LMH cells treated with 600 μM PB and compared with control values. […]
The modified enhancers were examined for response to 600 μM PB in luciferase reporter gene assays and the results are presented in FIG. 3.
Leghorn Male Hepatoma (LMH) cells were obtained from the American Type Culture Collection and cultivated in 10 cm dishes in Williams E medium supplemented with 10% FCS, 1% glutamine (2 mM) and 1% penicillin/streptomycin (50 IU/ml). Dishes coated with 0.1% gelatin were used for routine culture of LMH cells in order to facilitate proper seating of the cells onto the plastic plate surface.

Another experiment concerns mouse 369 bp DRES. Nature of the experiment: Luciferase reporter gene assay of mouse ALAS1 fragments / 369 bp DRES in LMH cells. The settings on record: metyrapone 500 μM, glutethimide 500 μM, PIA 250 μM. The format is cell-based. The method, then: A 175 bp fragment (441 to 615) (Seq. Id. No. 3) was isolated by digesting the 2.6 kb fragment with SacI/XbaI. All fragments were subcloned in the pGL3LUCpro+MCS vector and the resulting constructs tested for inducibility in LMH reporter gene assay (FIG. 6). […] The 369 bp fragment was termed Drug responsive enhancer sequence DRES.
To compare the 369 bp DRES to other inducible fragments, a series of different drugs was used as inducers: clothrimazole (Clo, 10 μM), dexamethasone (Dex, 50 μM), glutethimide (GE, 500 μM), metyrapone (Met, 500 μM), phenobarbital (PB, 500 μM), PCN (10 μM), propylisopropylacetamide (PIA, 250 μM), rifampicin (Rif, 10 μM), RU486 (10 μM), TCPOBOP (10 μM).
Data shown is from two independent experiments.

In the next experiment the target is T2, mouse CAR (Mus musculus, UniProt O35627).
T2 construct: expressed in transfected cells; host or cells: CV-1 cells, pSG5 expression vector
T2 sequence (O35627 1-358): T1 sequence (O35627 1-358)
The experiment is described as follows: Transactivation of 369 bp ADRES by mouse CAR in CV-1 cells (CAT reporter). To be noted: TCPOBOP, 16 h. The format is cell-based. The method, then: To test the effects of the mutations on transcriptional activation, transactivations in CV-1 cells with mouse PXR and mouse CAR and their respective inducers PCN and TCPOBOP, were performed (FIG. 14). The inducible DNA constructs were subcloned into the CAT5 reporter vector and tested for their ability to be transactivated by nuclear receptor transcription factors in CV-1 cells. Mouse PXR (A) and mouse CAR (B) coding regions cloned into the pSG5 expression vector were cotransfected along with a vector expressing pSV β-galactosidase as control. Cells were then treated for 16 h with either drugs (A, PCN; B, TCPOBOP) or vehicle control and cell extracts were analyzed for CAT expression normalized against β-galactosidase levels. Experiments were repeated at least three times and error bars represent standard deviations.

Molecules are shown by their SMILES. Where two headings read alike, the source gives them in different places.

Regarding `C[C@]12CC[C@@H](O)C[C@@H]1CC[C@@H]1[C@@H]2CC[C@]2(C)C=CC[C@@H]12` [3α-androstenol], the “mCAR induced activity remaining after repression” value on mCAR (human ALAS1 fragments hA795, hA8, hA174, inverse agonist) is reported as “approximately 50%”.
As for `CCC1(c2ccccc2)C(=O)NC(=O)NC1=O.[Na]` [PB, 5-ethyl-5-phenyl-barbituric acid sodium salt], in the experiment with ALAS1 mRNA, the “ALAS1 RNA levels relative to basal transcript levels” value came out at 16 fold and the “effect on ALAS1 mRNA levels” value was “strong inducer”. Also, in experiment [1], the “inducibility of 2xhA174, HS1 or HS2 half-site mutated” value was “abolishment of inducibility” and the “induction of 2xhA174, HS3 half-site altered” value is reported as “merely reduces induction levels”. In experiment [2] (600 μM PB, LMH cells), the “PB response of 167 bp ADRES diminished by DR4-3 mutation” value is on record as 75%; the “activation of 167 bp ADRES, DR4-2 mutant” value is recorded as 5.4 fold; the “activation of 176 bp ADRES, DR4-1 mutant” value is given as 16 fold; the “activation of 176 bp ADRES, DR5 mutant” value is recorded as 6.4 fold. Also, in experiment [2] (600 μM PB, LMH cells), the “activation of wild type 167 bp ADRES” value is 60 fold; the “activation of wild type 176 bp ADRES” value amounted to 44 fold; the “induction of 167 bp ADRES, DR4-3 mutant” value was 15 fold; the “limitation of 176 bp ADRES activation by DR4-1 mutation” value is on record as “over 60%”. In experiment [2] (600 μM PB, LMH cells), the “reduction of 176 bp ADRES activity by DR5 mutation” value was “over 85%” and the “reduction of PB response of 167 bp ADRES by DR4-2 alteration” value is “over 90%”. Besides, the “induction over control values, 176 bp and 167 bp elements” value in experiment [2] (LMH cells exposed to PB) was 25-60 fold. Besides, the “transcriptional activation in response to drug treatment, 5056 bp and 3282 bp subfragments” value in experiment [2] (LMH cells, 600 μM PB) is recorded as “virtually no transcriptional activation”. Besides, the “increase in transcriptional activation relative to control values, 7973 bp subfragment” value in experiment [2] (LMH cells, 600 μM PB, 16 h) is recorded as 28 fold. Also, the “activation of the 167 bp element compared to the 176 bp element” value in experiment [2] (PB 600 μM, LMH cells) was “twice the activation”.
Regarding `CCCC(C(N)=O)C(C)C` (stereo not drawn) [PIA, Propylisopropylacetamide], in experiment [1], the “inducibility of 2xhA174, HS1 or HS2 half-site mutated” value is reported as “abolishment of inducibility” and the “induction of 2xhA174, HS3 half-site altered” value is “merely reduces induction levels”. Besides, in experiment [2] (LMH cells, 16 h), the “ADRES activation in reporter assays” value is recorded as “in excess of levels obtained from PB treatment”. In addition, in the experiment with mouse 369 bp DRES, the “induction of the 369 bp DRES, ranking of drugs” value is reported as “strongest inducer”.
Take `Clc1cnc(Oc2ccc(Oc3ncc(Cl)cc3Cl)cc2)c(Cl)c1` [TCPOBOP, 1,4-Bis[2-(3,5-dichloropyridyloxy)]benzene]: the “effect on ALAS1 mRNA levels” value with ALAS1 mRNA (LMH cells, 16 h, PB 600 μM, dexamethasone 50 μM, RU-486 10 μM, rifampicin 100 μM, TCPOBOP 10 μM) was “no response”. The “reversal of 3α-androstenol repression of mCAR induced activity” value at mCAR (human ALAS1 fragments, direct agonist) is reported as “reversible”. Further, on mouse CAR, the “induction capacity, DR4-1,2/hs1,2 quadruple mutant” value is reported as “completely eliminated”; the “induction exceeding basal levels, DR4-2/hs1 construct” value is recorded as 1.4 fold; the “induction, DR4-2/hs2 construct or DR4-2 double mutant” value was “no induction was observed”; the “response, DR4-1 single and double mutants” value was “did not exhibit any response”. Moreover, the “ADRES activation in reporter assays” value in experiment [2] (LMH cells, 16 h) is on record as “no response”.
